Measured values published in paper PMC6716783, “Agonist-induced membrane nanodomain clustering drives GLP-1 receptor responses in pancreatic beta cells” (PLoS Biology, 2019).
Ends that are not written are not given here.

How the values were obtained:
SNAP-GLP-1R [1] = assay: Palmitoylation assay, SNAP-GLP-1R; assay type: cell-based, human
Method: For the detection of palmitoylated GLP-1Rs, cells were stimulated with 100 nM of the indicated agonist for 10 min and, when appropriate, pretreated with 10 μM BETP for 5 min (and throughout the agonist stimulation period) or overnight with 200 μM of the palmitoylation inhibitor 2-BP. Isolation of palmitoylated proteins was performed with the CAPTUREome S-Palmitoylated Protein Kit (Badrilla), following the manufacturer’s instructions. […] Key steps include blocking of free thiol groups with a blocking reagent, cleavage of thioester linkages to release the palmitate group, and capture of newly liberated thiols with the CAPTUREome capture resin. Briefly, cells were lysed and free thiols blocked in the manufacturer’s blocking buffer at 40 °C for 4 h with constant vortexing. Proteins were then precipitated with cold acetone for 20 min at −20 °C. Following centrifugation at 16,000g for 5 min, the pellet was extensively washed with 70% cold acetone and resuspended in the manufacturer’s binding buffer. Approximately 10% of the soluble lysate was saved as the input fraction (IF). Prewashed CAPTUREome capture resin was added to the lysates. To this mixture, either the thioester cleavage or the acyl-preservation reagents were added. Resins were washed five times with the manufacturer’s binding buffer. […]

GLP-1R [2] = settings: cited from earlier work
Source text: To further elucidate the mechanism by which BETP potentiates GLP-1R responses, we examined the relative contributions of GLP-1R palmitoylation, β-arrestins, and cholesterol-dependent membrane compartmentalization to its effect.

[3] = tested on: wt or C438A SNAP-GLP-1R in HEK293 cells; assay: Internalization of C438A versus wt SNAP-GLP-1R with BETP (confocal, DERET); assay type: cell-based, human; settings: 100 nM exendin-phe1, 10 μM BETP
GLP-1R [4] = settings: cited from earlier work; remark: listed apart in the source
[5] = tested on: cellular cholesterol in HEK293, CHO-K1, INS-1 832/3, MIN6B1 cells; assay: Cholesterol depletion (filipin / Amplex Red); assay type: cell-based; set-up: unit not given here
Method: Cells were treated with or without MβCD as above. For cholesterol labeling, filipin staining was carried out with the Cell-Based Cholesterol Assay Kit (Abcam). For quantification of cholesterol levels, lipid was extracted using butanol as described. Briefly, the washed cell pellet was left in 250 μl butanol overnight at 4 °C, and the organic layer was aspirated, placed in a microplate, and allowed to evaporate to dryness. The lipid film was redissolved in 1% Triton X-100, and cholesterol concentration was determined using the Amplex Red Cholesterol Assay Kit (Thermo Fisher), followed by normalization to protein content of the cell pellet determined by BCA assay.

[6] = tested on: human GLP-1R (SNAP-GLP-1R) in MIN6B1 cells; assay: SNAP-GLP-1R partitioning into detergent-resistant (raft) membrane fractions; assay type: cell-based; settings: 2 min stimulation, versus vehicle
[7] = tested on: SNAP-GIPR in HEK293 cells; settings: GIP 100 nM
Source text: These concentrations were selected because they provided optimum signal intensity at both measurement wavelengths. […] TR-FRET was sequentially measured after agonist addition.

[8] = tested on: SNAP-GIPR in CHO-K1 cells; settings: 100 nM GIP, 10 min
[9] = molecular target: T1, endogenous GLP-1R in INS-1 832/3 cells (Rattus norvegicus, UniProt P32301); assay: HTRF cAMP, wt INS-1 832/3 cells; assay type: cell-based; settings: MβCD; wild-type INS-1 832/3 cells
T1 construct: endogenous in cells
T1 sequence (P32301 22-463): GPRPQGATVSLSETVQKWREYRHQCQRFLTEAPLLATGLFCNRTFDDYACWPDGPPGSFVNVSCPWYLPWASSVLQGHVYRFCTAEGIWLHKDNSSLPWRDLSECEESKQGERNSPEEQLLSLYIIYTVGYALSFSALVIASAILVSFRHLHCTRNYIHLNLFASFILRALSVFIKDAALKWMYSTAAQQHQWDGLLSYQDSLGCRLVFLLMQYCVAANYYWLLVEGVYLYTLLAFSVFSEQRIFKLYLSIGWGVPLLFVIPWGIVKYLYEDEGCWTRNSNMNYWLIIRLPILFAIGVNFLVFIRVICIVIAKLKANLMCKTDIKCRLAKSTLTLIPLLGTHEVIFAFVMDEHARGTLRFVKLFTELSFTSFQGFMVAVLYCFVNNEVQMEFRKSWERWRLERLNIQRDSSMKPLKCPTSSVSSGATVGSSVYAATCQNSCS
Method: Cells were treated in white microplates with agonist, with or without isobutylmethylxanthine (IBMX) as indicated to inhibit phosphodiesterases, for the indicated period of time before total cellular cAMP determination by HTRF (Cisbio cAMP Dynamic 2).

[10] = tested on: SNAP-GIPR in INS-1 832/3 cells; assay: SNAP-GIPR internalization by confocal microscopy; assay type: cell-based; settings: MβCD 10 mM 1 h; 100 nM GIP 1 h
Method: For confocal microscopy, cells were labeled at 37 °C with 1 μM of the indicated SNAP-tag fluorescent probe (New England Biolabs) in full media, stimulated with agonists for the indicated times, fixed in 4% paraformaldehyde, mounted in Prolong Diamond antifade reagent with 4,6-diamidino-2-phenylindole (Life Technologies), imaged with a Zeiss LSM-780 inverted confocal laser-scanning microscope in a ×63/1.4 numerical aperture oil-immersion objective from the Facility for Imaging by Light Microscopy (FILM) at Imperial College London, and analyzed in Fiji. […] Images were acquired with an ORCA-Flash 4.0 camera (Hamamatsu) and Metamorph software (Molecular Devices), and colocalization was measured by Manders’ coefficient analyzed using Coloc 2 plugin in Fiji.

[11] = tested on: SNAP-GLP-1R in HEK293 cells; assay: Surface SNAP-GLP-1R labeling by Lumi4-Tb; assay type: cell-based, human; settings: MβCD treatment
[12] = tested on: SNAP-GLP-1R in HEK293 cells; assay: NR12S TR-FRET (liquid-ordered localization); assay type: cell-based, human; settings: for concentration response with MβCD (sheet S2H): agonist not named
SNAP-GLP-1R [13] = assay: SNAP-GLP-1R internalization by confocal microscopy; assay type: cell-based, human

## CC[S+]([O-])c1nc(-c2cccc(OCc3ccccc3)c2)cc(C(F)(F)F)n1 (centres unmarked) [BETP, 4-(3-benzyloxyphenyl)-2-ethylsulfinyl-6-(trifluoromethyl)pyrimidine]
SNAP-GLP-1R [1]; CHO SNAP-GLP-1R cells, BETP 10 μM, 100 nM exendin-4 10 min
  effect on exendin-4-induced palmitoylation (in words): significant reduction in exendin-4-induced palmitoylation
GLP-1R [2]
  covalent binding site (in words): covalently bind two intracellular GLP-1R cysteine residues (347 and 438
[3]
  effect of BETP on internalization of C438A (in words): comparable to that of wild-type receptors
GLP-1R [4]
  potentiation of weak agonist GLP-1(9–36)NH2 (in words): markedly augment responses
  potentiation of weak agonist oxyntomodulin (in words): markedly augment responses

## CC(C)CCC[C@@H](C)[C@H]1CC[C@H]2[C@@H]3CC=C4C[C@@H](O)CC[C@]4(C)[C@H]3CC[C@]12C [Chol]
[5]; CHO-K1, replicate 1
  cellular cholesterol: 666.594
[5]; CHO-K1, replicate 2
  cellular cholesterol: 793.376
[5]; CHO-K1, replicate 3
  cellular cholesterol: 793.376
[5]; HEK293, replicate 1
  cellular cholesterol: 549.236
[5]; HEK293, replicate 2
  cellular cholesterol: 621.505
[5]; HEK293, replicate 3
  cellular cholesterol: 643.5
[5]; INS-1 832/3, replicate 1
  cellular cholesterol: 653.543
[5]; INS-1 832/3, replicate 2
  cellular cholesterol: 706.063
[5]; INS-1 832/3, replicate 3
  cellular cholesterol: 690.314
[5]; MIN6B1, replicate 1
  cellular cholesterol: 989.644
[5]; MIN6B1, replicate 2
  cellular cholesterol: 1174.28
[5]; MIN6B1, replicate 3
  cellular cholesterol: 1186.59

## GLP-1(7–36)NH2: endogenous GLP-1R agonist (HAEGTFTSDVSSYLEGQAAKEFIAWLVKGR-NH2; UniProt P01275 98-127, looked up)
[6]
  SNAP-GLP-1R raft recruitment (in words): Increased enrichment of poly-glycosylated GLP-1Rs in membrane raft fractions

## CCCCCCCCCCCCCCCC(=O)O [palmitate]
SNAP-GLP-1R [1]; MIN6B1 SNAP-GLP-1R cells, excess palmitate (200 μM palmitate/BSA overnight)
  GLP-1R palmitoylation (in words): greatly enhanced

## glucose-dependent insulinotropic polypeptide [GIP]
[7]
  SNAP-GIPR clustering (in words): no detectable increase upon GIP addition
[8]
  GIPR palmitoylation (in words): not further increased by GIP stimulation

## methyl-β-cyclodextrin [MβCD]
[9]
  effect on cAMP production (in words): reduced by MβCD
[10]
  effect on GIPR endocytosis (in words): virtually abolished after MβCD treatment
[11]
  effect on surface SNAP-GLP-1R expression (in words): did not alter receptor surface SNAP-GLP-1R expression
[5]; CHO-K1, replicate 1
  cellular cholesterol: 39.7439
[5]; CHO-K1, replicate 2
  cellular cholesterol: 158.5
[5]; CHO-K1, replicate 3
  cellular cholesterol: 99.7412
[5]; HEK293, replicate 1
  cellular cholesterol: 170.419
[5]; HEK293, replicate 2
  cellular cholesterol: 186.214
[5]; HEK293, replicate 3
  cellular cholesterol: 179.148
[5]; INS-1 832/3, replicate 1
  cellular cholesterol: 159.866
[5]; INS-1 832/3, replicate 2
  cellular cholesterol: 177.786
[5]; INS-1 832/3, replicate 3
  cellular cholesterol: 167.411
[5]; MIN6B1, replicate 1
  cellular cholesterol: 202.183
[5]; MIN6B1, replicate 2
  cellular cholesterol: 224.442
[5]; MIN6B1, replicate 3
  cellular cholesterol: 240.208
[12]; MβCD, S2H
  effect on NR12S-linked TR-FRET (in words): effective in reducing both basal and exendin-4-induced NR12S-linked increases in TR-FRET
[12]; log conc -6, replicate 1
  concentration response with MβCD (sheet S2H): 33.0955
[12]; log conc -6, replicate 2
  concentration response with MβCD (sheet S2H): 36.4407
[12]; log conc -6, replicate 3
  concentration response with MβCD (sheet S2H): 38.4994
[12]; log conc -6.47712, replicate 1
  concentration response with MβCD (sheet S2H): 34.0966
[12]; log conc -6.47712, replicate 2
  concentration response with MβCD (sheet S2H): 36.1901
[12]; log conc -6.47712, replicate 3
  concentration response with MβCD (sheet S2H): 32.7645
[12]; log conc -6.95424, replicate 2
  concentration response with MβCD (sheet S2H): 32.2917
[12]; log conc -6.95424, replicate 3
  concentration response with MβCD (sheet S2H): 33.0671
[12]; log conc -7.43136, replicate 1
  concentration response with MβCD (sheet S2H): 24.1893
[12]; log conc -7.43136, replicate 2
  concentration response with MβCD (sheet S2H): 31.793
[12]; log conc -7.90849, replicate 2
  concentration response with MβCD (sheet S2H): 35.2618
[12]; log conc -7.90849, replicate 3
  concentration response with MβCD (sheet S2H): 26.4888
[12]; log conc -8.38561, replicate 3
  concentration response with MβCD (sheet S2H): 33.8275
[12]; log conc -8.86273, replicate 1
  concentration response with MβCD (sheet S2H): 30.8645
[12]; log conc -8.86273, replicate 2
  concentration response with MβCD (sheet S2H): 27.0998
[12]; log conc -8.86273, replicate 3
  concentration response with MβCD (sheet S2H): 36.96
[12]; log conc -10, replicate 1
  concentration response with MβCD (sheet S2H): 23.1185
[12]; log conc -10, replicate 2
  concentration response with MβCD (sheet S2H): 30.0361
[12]; log conc -10, replicate 3
  concentration response with MβCD (sheet S2H): 37.2206
SNAP-GLP-1R [13]; MIN6B1, MβCD 10 mM 1 h preincubation
  effect on BETP-induced internalization of exendin-phe1-stimulated SNAP-GLP-1R (in words): inhibited this process to the same extent as for exendin-4
SNAP-GLP-1R [13]; MβCD 10 mM 1 h, 100 nM exendin-4, 15 min, beta and nonbeta cells
  effect on exendin-4-induced internalization (in words): marked inhibition of exendin-4-induced SNAP-GLP-1R internalization
SNAP-GLP-1R [13]; MβCD, wt and β-arrestin-less HEK293, 100 nM exendin-4, 15 min
  effect on SNAP-GLP-1R endocytosis (in words): substantially inhibited by MβCD irrespective of β-arrestin status
